Where “and” joins values, the source holds several entries; their conditions need not be identical. Identical values can stand only once.

Our source for the viability values is the supplement of paper PMC6723410.

One assay relates to GUMC-403. The assay is described as follows: viability at highest tested concentration (max response) relative to DMSO (% of DMSO control); higher = less cytotoxic. As to conditions: library / dose series: MIPE library, 11-point 1:3 dilution; top concentration 11.1 µM; 48 h. The method, boiled down: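 Plates of 1536 wells were seeded with 700 patient-derived GUMC-403 papilloma cells per well, grown by conditional reprogramming, in 5 μL F + Y medium and kept overnight at 37 °C. Compounds followed at 23 nL by pin tool over an 11-point 1:3 series, for 48 h. After a CellTiter-Glo luminescence read on a ViewLux, signals were set against vehicle wells as 100% and empty wells as 0%. The reported number is viability at the highest tested concentration relative to vehicle control.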
Consider `CO[C@H]1/C=C/O[C@@]2(C)Oc3c(C)c(O)c4c(O)c(c(/C=N/N5CCN(C)CC5)c(O)c4c3C2=O)NC(=O)/C(C)=C\C=C\[C@H](C)[C@H](O)[C@@H](C)[C@@H](O)[C@@H](C)[C@H](OC(C)=O)[C@@H]1C`, for which the viability worked out at 107.

The assay is the same for the next values; noted with them: library / dose series: MIPE library, 11-point 1:3 dilution; top concentration 23 µM; 48 h.
`CC[C@H](/C=C/[C@@H](C)[C@H]1CC[C@H]2[C@@H]3CC=C4C[C@@H](O)CC[C@]4(C)[C@H]3CC[C@]12C)C(C)C`: the viability came out at 104.

Staying with this assay, now noted: library / dose series: MIPE library, 11-point 1:3 dilution; top concentration 46.1 µM; 48 h.
`CO[C@@]12[C@H](COC(N)=O)C/3=C(N1C[C@@H]4N[C@H]24)/C(=O)/C(=C(N)\C3=O)C` registered a viability of 77.
Turning to `CCCCOCCOc1nc(-c2ccc(C(=O)O)c(F)c2)sc1C`, the viability worked out at 105.
Turning to `O=C(Nc1ccc(OC(F)(F)F)cc1)c1sccc1NCc1ccnc2ccccc12`, the viability worked out at 91.2.
The molecule `CN1[C@@H]2CC[C@H]1CC(OC(=O)c1c[nH]c3ccccc13)C2` (stereo not given in full) came in with a viability of 134.
As to `COCC(=O)NC/C=C/c1ccc2ncnc(Nc3ccc(Oc4ccc(C)nc4)c(C)c3)c2c1`, the viability is 98.1.
For `Cc1cc(CN2CCN(c3c(Br)cnc4[nH]c(-c5ccc(N6CCN(C)CC6)cc5)nc34)CC2)no1`, the viability was 108.
With `CC[C@H]1OC(=O)[C@H](C)C(=O)[C@H](C)[C@@H](O[C@H]2O[C@H](C)C[C@H](N(C)C)[C@H]2O)[C@](C)(OC)C[C@@H](C)C(=O)[C@H](C)[C@H]2N(CCCCn3cnc(-c4cccnc4)c3)C(=O)O[C@]12C`, the viability was 102.
`CCC(C)N1\N=C/N(C1=O)C2=CC=C(C=C2)N3CCN(CC3)C4=CC=C(OC[C@H]5CO[C@@](C[N]6C=NC=N6)(O5)C7=CC=C(Cl)C=C7Cl)C=C4` (stereo not given in full) had a viability of 101.
Still for that read-out and setting: next, `Cc1cnc(Nc2ccc(OCCN3CCCC3)cc2)nc1Nc1cccc([S+](=O)([O-])NC(C)(C)C)c1`: 141; `CC(COc1ccccc1)N(CCCl)Cc1ccccc1` (stereo not given): 122; `CN(C)C[C@@H]1CC[N]2C=C(C3=C2C=CC=C3)C/4=C(/C(=O)NC4=O)C5=C[N](CCO1)C6=C5C=CC=C6`: 89.8.
The molecule `C=C[C@H]1CN2CCC1C[C@@H]2[C@@H](O)c1ccnc2ccccc12` (stereo not given in full) yielded a viability of 66.8.
In turn, `COc1cc(N2CCN(C)CC2)ccc1Nc1nc(N)c(C(=O)c2c(Cl)cccc2Cl)s1` had a viability of 120.
In the case of `C[C@]12CC[C@@H]3c4ccc(O)cc4C[C@@H](CCCCCCCCC[S+]([O-])CCCC(F)(F)C(F)(F)F)[C@H]3[C@@H]1CC[C@@H]2O` (stereo not given in full), the viability is 114.
Molecule `CC(C)[C@H](CO)Nc1nc(Nc2cccc(Cl)c2)c2ncn(C(C)C)c2n1` had a viability of 21.1.
Still for that read-out and setting: next, `Cc1cnc(-c2cc(N3CCN(C(=O)CC[S+](C)(=O)[O-])CC3)ncc2Cl)c(C)c1`: 72.3; `Cc1cccc(C#Cc2ccccc2)n1`: 101.
On the same count and under the same terms, for `O=C([O-])C(O)Cc1ccc(O)c(O)c1` (stereo not given) the value was 106; for `CNC1[C@@H](O)C(O[C@@H]2C(O)C(O[C@H]3O[C@H]([C@@H](C)NC)CC[C@H]3N)[C@@H](N)C[C@H]2N)OC[C@]1(C)O` (stereo not given in full), 101.
Same read-out and setting: next, `CCCCCN(C)CCC(O)(P(=O)([O-])O)P(=O)(O)O`: 106; `Cc1coc2c1C(=O)C(=O)c1c-2ccc2c1CCCC2(C)C`: 113.
In the case of `Cn1c(=O)c2c(ncn2CC(O)CO)n(C)c1=O` (stereo not given), the viability came to 138.
`COc1nc(N)nc2c1ncn2[C@@H]1O[C@H](CO)[C@@H](O)[C@@H]1O` registered a viability of 120.
Molecule `CC(=O)C1=C(O)C2(C)C(=CC1=O)Oc1c(C(C)=O)c(O)c(C)c(O)c12` (stereo not given) returned a viability of 143.
The same measure, in the same setting: next, `CC1(CN2CCC(n3c(=O)[nH]c4ccccc43)CC2)OCc2ccccc2-n2cccc21` (stereo not given): 82.8; `Nc1cccc([S+](=O)([O-])N2CCCN([S+](=O)([O-])c3ccc4c(c3)OCCO4)CC2)c1`: 87.
Still for that read-out and setting: next, `CC(C)OC(=O)OCOP(=O)(CO[C@H](C)Cn1cnc2c(N)ncnc21)OCOC(=O)OC(C)C.O=C(O)C=CC(=O)O`: 118 and 94.5.
`CC/1=C(\CCN2CCC(CC2)C3=NOC4=C3C=CC(=C4)F)C(=O)N/5CCCCC5=N1`: the viability was determined as 114.
With `CCC(C1CCC(C)C(O1)C(C)C(O)C(C)C(=O)C(CC)C2OC\3(O[C@]4(CC[C@@](C)(O4)C5CC[C@@](O)(CC)C(C)O5)C(O)\C=C3)C(C)CC2C)C([O-])=O` (stereo not given in full), the viability stood at 76.
As to `Cc1ccc(NC(=O)c2ccc(CN3CCN(C)CC3)cc2)cc1Nc1nccc(-c2cccnc2)n1`, the viability is 127.
Still for that read-out and setting: next, `Cc1[nH]c(/C=C2\C(=O)Nc3ccccc32)c(C)c1CCC(=O)O`: 98.9; `C[C@]12CC[C@@H]3c4ccc(O)cc4CC[C@H]3[C@@H]1[C@@H](O)[C@@H](O)[C@@H]2O`: 94.5; `CN(C)CCOc1ccc(-c2nc(-c3ccncc3)c(-c3ccc4c(c3)CC/C4=N\O)[nH]2)cc1`: 94.9.
As to `C[S+](=O)([O-])c1cccc(CNc2nc(Nc3ccc4c(c3)CCC(=O)N4)ncc2C(F)(F)F)c1`, the viability is 66.8.
`CCN(CC)CCCCNc1nc2cc(Cl)c(Cl)cc2nc1-c1ccc(-c2cccs2)s1` displayed a viability of 92.1.
In the case of `c1cc2c(cc1[C@H]1OC[C@H]3[C@@H]1CO[C@@H]3c1ccc3c(c1)OCO3)OCO2`, the viability came to 124.
As to `CN[S+](=O)([O-])Cc1ccc2[nH]cc(CCN(C)C)c2c1`, the viability is 126.
`CCN(CC)Cc1ccc2cc(COC(=O)Nc3ccc(C(=O)NO)cc3)ccc2c1` registered a viability of 78.6.
The same measure, in the same setting: next, `Nc1nc(Nc2ccc([S+](N)(=O)[O-])cc2)nn1C(=O)c1c(F)cccc1F`: 111; `OC(=O)CNC(=O)\C1=C(/O)C2=CC=CC=C2N(CC3=CC=CC=C3)C1=O`: 108.
With `Cl.O[C@@H](CNC[C@H](O)[C@H]1CCc2cc(F)ccc2O1)[C@@H]1CCc2cc(F)ccc2O1`, the viability turned out to be 95.8.
Still for that read-out and setting: for `CO[C@H]1/C=C/O[C@@]2(C)Oc3c(C)c(O)c4c(O)c(c5c(nc6cc(C)ccn65)c4c3C2=O)NC(=O)/C(C)=C\C=C\[C@H](C)[C@H](O)[C@@H](C)[C@@H](O)[C@@H](C)[C@H](OC(C)=O)[C@@H]1C` the value was 133; for `C[C@@H]1C(=O)O[C@H]2CC34[C@H]5C[C@@H](C(C)(C)C)C36[C@@H](OC(=O)[C@@H]6O)O[C@@]4(C(=O)O5)[C@]21O` (stereo not given in full), 101.
In turn, `COc1cc(Nc2ncc(F)c(Nc3ccc4c(n3)NC(=O)C(C)(C)O4)n2)cc(OC)c1OC` had a viability of 89.6.
Take `CC(=O)O[C@@]1(CC[C@H]2[C@@H]3\C=C(C)/C4=C/C(=O)CC[C@]4(C)[C@H]3CC[C@]12C)C(C)=O`: the viability was determined as 127.
In the case of `O=C1CCC[C@@H]2[C@H]3CCCN4CCC[C@@H](CN12)[C@@H]34`, the viability came out at 117.
As to `CCCc1nc(C(C)(C)O)c(C(=O)O)n1Cc1ccc(-c2ccccc2-c2nn[nH]n2)cc1`, the viability stood at 107.
Turning to `CNC(=O)CN1CCC(Oc2cc3c(Nc4cccc(Cl)c4F)ncnc3cc2OC)CC1`, the viability worked out at 61.1.
As for `Nc1nc(N)c2nc(CNc3ccc(C(=O)NC(CCC(=O)O)C(=O)O)cc3)cnc2n1` (stereo not given), the viability stood at 76.6.
For `COc1cc(/C=C/C(=O)O)ccc1O`, the viability turned out to be 115.
Take `Cc1cc(O)c2c3c4c(cc(O)c13)C(C)(C)C(=O)c1c(O)cc(O)c(c1-4)C2=O`: the viability worked out at 104.
Regarding `COc1ccc(C(=O)CC(=O)c2ccc(C(C)(C)C)cc2)cc1`, the viability worked out at 126.
`COC\1=C(/OC)C(=O)\C(=C(C)/C1=O)CCCCCCCCCCO` displayed a viability of 112.
Molecule `CCOC(=O)\C1=C(/C)N\C2=C(C1C3=CC=C(C=C3)C4=CC=CC=C4)\C(=O)CC(C)(C)C2` (stereo not given) came in with a viability of 82.6.
For `CC\1=C(C(\N=C(/N1)C2=CC(=NC=C2)Cl)C3=C(F)C=C(Cl)C=C3)/C(=O)NC4=C(F)C=C5[NH]N=CC5=C4` (stereo not given), the viability amounted to 101.
`CN(C)CCc1c[nH]c2ccc(C[C@H]3COC(=O)N3)cc12` showed a viability of 106.
Molecule `S=P(N1CC1)(N1CC1)N1CC1` showed a viability of 115.
On the same count and under the same terms, for `CC(Oc1ccc(O)cc1)(P(=O)(O)O)P(=O)(O)O` the value was 112; for `Cc1c(C(=O)Nc2ccc(N3C[C@@H](C)O[C@@H](C)C3)nc2)cccc1-c1ccc(OC(F)(F)F)cc1`, 109.
In the case of `CC1=C(/C=C/C(C)=C/C=C/C(C)=C/C(=O)O)C(C)(C)CCC1`, the viability is 86.6.
In turn, `c1ccc2[nH]c(-c3cscn3)nc2c1` showed a viability of 124.
`CC\1=C/C=C\C=[N]1[Pt](N)(Cl)Cl` showed a viability of 136.
`CC/1=C(/C(CC(=O)N1)C2=CC=C(C=C2)C(F)(F)F)C(=O)NC3=C(F)C=C4[NH]N=CC4=C3` (stereo not given) came in with a viability of 108.
For the molecule `COC(=O)Nc1nc2cc(C(=O)c3ccc(F)cc3)ccc2[nH]1`, the viability was 88.
Take `CN(Cc1cc(Br)cc(Br)c1N)C1CCCCC1`: the viability turned out to be 122.
`CC(=O)N1CCN(c2ccc(OC[C@H]3CO[C@](Cn4ccnc4)(c4ccc(Cl)cc4Cl)O3)cc2)CC1`: the viability is 104.

The assay is the same for the next values; noted with them: library / dose series: MIPE library, 11-point 1:3 dilution; top concentration 92.2 µM; 48 h.
Molecule `C=C1CCC2[C@](C)(CO)C(O)CC[C@]2(C)C1C/C=C1/C(=O)OCC1O` (stereo not given in full) showed a viability of 106.
Take `C[C@]12CCC(=O)C=C1CC[C@@H]1[C@@H]2CC[C@@]2(C)[C@H]1CC[C@]2(C)O`: the viability was 128.
